Reference: ChEMBL document CHEMBL1136446, “Synthesis and antiproliferative activity of retroetoposide” (Bioorg Med Chem Lett, 2003)

Tested on: L1210
Experiment: Inhibitory activity against L1210 cell line
Assay type: functional, cell-based
Conditions: Mus musculus

In order of falling IC50:
1. COc1cc([C@@H]2c3cc4c(cc3[C@@H](O)C3C(=O)OCC32)OCO4)cc(OC)c1O (stereo partly drawn)  27.4 µM
2. COc1cc([C@@H]2c3cc4c(cc3[C@@H](O[C@@H]3O[C@H]5CO[C@@H](C)O[C@H]5[C@H](O)[C@@H]3O)[C@H]3C(=O)OC[C@H]23)OCO4)cc(OC)c1O  6.74 µM
3. COc1cc([C@@H]2c3cc4c(cc3[C@@H](O[C@@H]3O[C@@H]5CO[C@@H](C)O[C@H]5[C@H](O)[C@H]3O)[C@H]3COC(=O)[C@H]23)OCO4)cc(OC)c1O [ETOPOSIDE]  0.834 µM
